Laboratory results as given in patent US9850203B2, “Autotaxin inhibitor compounds” (PharmAkea, Inc., priority 2013, dated 2017).

Target: human autotaxin (ATX) (Homo sapiens (Human), UniProt Q13822)
Test: Human Autotaxin Assay
Assay type: biochemical
Conditions: concentrated conditioned media from Hep3B cells; LPC substrate, choline release
Experimental: ATX activity is assayed in concentrated conditioned media from Hep3B human hepatocellular carcinoma cells by measuring the amount of choline released from the substrate, lysophosphatidylcholine (LPC) as it is cleaved to LPA. Conditioned media is collected from confluent Hep3B cells and concentrated 20-fold using Centriprep-30 filter devices (Millipore). To assay for autotaxin inhibition, 10-20 μL of the concentrated conditioned media is incubated with 2.5 μL of a test compound in DMSO and 72.5-82.5 μL lyso-PLD buffer (100 mM Tris pH 9, 500 mM NaCl, 5 mM MgCl2, 5 mM CaCl2, 0.05% Triton X-100 in the presence or absence of 0.2% fatty-acid-free human serum albumin) for 15 min at 37° C. After the 15 min incubation, 5 uL of 2 mM LPC (14:0; Avanti Polar Lipids Cat#855575C) diluted in lyso-PLD buffer is added for a final concentration of 100 uM and the incubation continues for 1.5-3 hours at 37° C.

Structure (SMILES)	IC50
O=C(O)c1cccc(Sc2c(Cl)n(CCN3CC4(CCC4)c4ccccc43)c3c(F)c(Cl)ccc23)c1F [Compound 5-1, Sodium 3-((2,6-dichloro-7-fluoro-1-(2-(spiro[cyclobutane-1,3′-indolin]-1′-yl)ethyl)-1H-indol-3-yl)thio)-2-fluorobenzoate]	≤ 500 nM
Cc1c(Sc2cccc(C(=O)O)n2)c2ccc(Cl)c(F)c2n1CC(=O)N1CC2(CCC2)c2c(F)cccc21 [Compound 3-104, 6-((6-Chloro-7-fluoro-1-(2-(4′-fluorospiro[cyclobutane-1,3′-indolin]-1′-yl)-2-oxoethyl)-2-methyl-1H-indol-3-yl)thio)picolinic acid]	≤ 500 nM
Cc1c(Sc2cccc(C(=O)O)c2)c2ccc(Cl)c(F)c2n1CC(=O)N1CCC2(CC1)CNC(=O)C2 [Compound 1-45, 3-((6-Chloro-7-fluoro-2-methyl-1-(2-oxo-2-(3-oxo-2,8-diazaspiro[4.5]decan-8-yl)ethyl)-1H-indol-3-yl)thio)benzoic acid]	≤ 500 nM
Cc1c(Sc2cccc(C(=O)O)c2)c2ccc(Cl)c(F)c2n1CC(=O)N1CCC(c2ccncc2)C1 (centres unmarked) [Compound 1-89, 3-((6-Chloro-7-fluoro-2-methyl-1-(2-oxo-2-(3-(pyridin-4-yl)pyrrolidin-1-yl)ethyl)-1H-indol-3-yl)thio)benzoic acid]	≤ 500 nM
Cc1c(Sc2cccc(C(=O)O)c2F)c2ccc(Cl)c(F)c2n1CC(=O)N1CCC(C)(O)C1 (centres unmarked) [Compound 2-61, 3-((6-Chloro-7-fluoro-1-(2-(3-hydroxy-3-methylpyrrolidin-1-yl)-2-oxoethyl)-2-methyl-1H-indol-3-yl)thio)-2-fluorobenzoic acid]	≤ 500 nM
Cc1c(Sc2cccc(C(=O)O)c2F)c2ccc(Cl)c(F)c2n1CC(=O)N1CC2(CCC2)c2c(F)cccc21 [Compound 3-96, 3-((6-Chloro-7-fluoro-1-(2-(4′-fluorospiro[cyclobutane-1,3′-indolin]-1′-yl)-2-oxoethyl)-2-methyl-1H-indol-3-yl)thio)-2-fluorobenzoic acid]	≤ 500 nM
Cc1c(Sc2cccc(C(=O)O)c2F)c2ccc(Cl)c(F)c2n1CC(=O)N1CC(C#N)C1 [Compound 2-67, 3-((6-Chloro-1-(2-(3-cyanoazetidin-1-yl)-2-oxoethyl)-7-fluoro-2-methyl-1H-indol-3-yl)thio)-2-fluorobenzoic acid]	≤ 500 nM
Cc1c(Sc2cccc(C(=O)O)c2)c2ccc(Cl)c(F)c2n1CC(=O)N1CCC(O)C1 (centres unmarked) [Compound 1-90, 3-((6-Chloro-7-fluoro-1-(2-(3-hydroxypyrrolidin-1-yl)-2-oxoethyl)-2-methyl-1H-indol-3-yl)thio)benzoic acid]	≤ 500 nM
Cc1c(Sc2cccc(C(=O)O)c2)c2ccc(Cl)c(F)c2n1CC(=O)N1CC2C(C1)C2C(N)=O [Compound 1-51, 3-((1-(2-((1R,5S,6R)-6-Carbamoyl-3-azabicyclo[3.1.0]hexan-3-yl)-2-oxoethyl)-6-chloro-7-fluoro-2-methyl-1H-indol-3-yl)thio)benzoic acid]	≤ 500 nM
Cc1c(Sc2cccc(C(=O)O)c2)c2ccc(Cl)c(F)c2n1CC(=O)N1Cc2ccccc2C1 [Compound 1-91, 3-((6-Chloro-7-fluoro-1-(2-(isoindolin-2-yl)-2-oxoethyl)-2-methyl-1H-indol-3-yl)thio)benzoic acid]	≤ 500 nM
Cc1c(Sc2cccc(C(=O)O)c2F)c2ccc(Cl)c(F)c2n1CC(=O)N1CC2(CCCC2)c2ccccc21 [Compound 3-221, 3-((6-Chloro-7-fluoro-2-methyl-1-(2-oxo-2-(spiro[cyclopentane-1,3′-indolin]-1′-yl)ethyl)-1H-indol-3-yl)thio)-2-fluorobenzoic acid]	≤ 500 nM
Cc1c(Sc2cccc(C(=O)O)c2)c2ccc(Cl)c(F)c2n1CC(=O)N1CCCC(Cc2ccc(F)cc2)C1 (centres unmarked) [Compound 1-15, 3-((6-Chloro-7-fluoro-1-(2-(3-(4-fluorobenzyl)piperidin-1-yl)-2-oxoethyl)-2-methyl-1H-indol-3-yl)thio)benzoic acid]	500 to 3000 nM
Cc1c(Sc2cccc(C(=O)O)c2F)c2ccc(Cl)c(F)c2n1CC(=O)N1C[C@@H](O)[C@H](F)C1 [Compound 2-66, 3-((6-Chloro-7-fluoro-1-(2-((3R,4R)-3-fluoro-4-hydroxypyrrolidin-1-yl)-2-oxoethyl)-2-methyl-1H-indol-3-yl)thio)-2-fluorobenzoic acid]	≤ 500 nM
Cc1c(Sc2cccc(C(=O)O)c2)c2ccc(Cl)c(F)c2n1CC(=O)N1CC(n2cccn2)C1 [Compound 1-86, 3-((1-(2-(3-(1H-Pyrazol-1-yl)azetidin-1-yl)-2-oxoethyl)-6-chloro-7-fluoro-2-methyl-1H-indol-3-yl)thio)benzoic acid]	≤ 500 nM
Cc1c(Sc2cccc(C(=O)O)c2)c2ccc(Cl)c(F)c2n1CCC(=O)N1CCc2ccccc21 [Compound 1-26, 3-((6-Chloro-7-fluoro-1-(3-(indolin-1-yl)-3-oxopropyl)-2-methyl-1H-indol-3-yl)thio)benzoic acid]	≤ 500 nM
Cc1c(Sc2cccc(C(=O)O)c2)c2ccc(Cl)c(F)c2n1CC(=O)N1CCc2cccnc21 [Compound 1-72, 3-((6-Chloro-1-(2-(2,3-dihydro-1H-pyrrolo[2,3-b]pyridin-1-yl)-2-oxoethyl)-7-fluoro-2-methyl-1H-indol-3-yl)thio)benzoic acid]	500 to 3000 nM
Cc1c(Sc2cccc(C(=O)O)c2)c2ccc(Cl)c(F)c2n1CC(=O)N1CCC(c2ccc(F)cc2)C1 (single isomer, unassigned; enantiomer a) [Compound 1-74, 3-((6-Chloro-7-fluoro-1-(2-(3-(4-fluorophenyl)pyrrolidin-1-yl)-2-oxoethyl)-2-methyl-1H-indol-3-yl)thio)benzoic acid Enantiomer A]	500 to 3000 nM
Cc1c(Sc2cccc(C(=O)O)c2F)c2ccc(Cl)c(F)c2n1CCN1CC2(CC2)c2ccccc21 [Compound 2-74, Sodium 3-((6-chloro-7-fluoro-2-methyl-1-(2-(spiro[cyclopropane-1,3′-indolin]-1′-yl)ethyl)-1H-indol-3-yl)thio)-2-fluorobenzoate]	≤ 500 nM
O=C(O)c1cccc(Sc2c(C3CC3)n(CCN3CCc4ccccc43)c3c(F)c(Cl)ccc23)c1F [Compound 5-4, Sodium 3-((6-chloro-2-cyclopropyl-7-fluoro-1-(2-(indolin-1-yl)ethyl)-1H-indol-3-yl)thio)-2-fluorobenzoate]	≤ 500 nM
Cc1c(Sc2cccc(C(=O)O)c2)c2ccc(Cl)c(F)c2n1CC(=O)N1CCC2(CC1)CC(=O)C2 [Compound 1-18, 3-((6-Chloro-7-fluoro-2-methyl-1-(2-oxo-2-(2-oxo-7-azaspiro[3.5]nonan-7-yl)ethyl)-1H-indol-3-yl)thio)benzoic acid]	≤ 500 nM
Cc1c(Sc2cccc(C(=O)O)c2)c2ccc(Cl)c(F)c2n1CC(=O)N1CCC12CCN(C)CC2 [Compound 1-87, 3-((6-Chloro-7-fluoro-2-methyl-1-(2-(7-methyl-1,7-diazaspiro[3.5]nonan-1-yl)-2-oxoethyl)-1H-indol-3-yl)thio)benzoic acid]	≤ 500 nM
O=C(O)c1cccc(Sc2c(C3CC3)n(CC(=O)N3CCc4ccccc43)c3c(F)c(Cl)ccc23)c1F [Compound 4-29, Sodium 3-((6-chloro-2-cyclopropyl-7-fluoro-1-(2-(indolin-1-yl)-2-oxoethyl)-1H-indol-3-yl)thio)-2-fluorobenzoate]	≤ 500 nM
Cc1c(Sc2cccc(C(=O)O)c2F)c2ccc(Cl)c(F)c2n1CC(=O)N1CCc2ccncc21 [Compound 2-60, 3-((6-Chloro-1-(2-(2,3-dihydro-1H-pyrrolo[2,3-c]pyridin-1-yl)-2-oxoethyl)-7-fluoro-2-methyl-1H-indol-3-yl)thio)-2-fluorobenzoic acid]	≤ 500 nM
Cc1c(Sc2cccc(C(=O)O)c2)c2ccc(Cl)c(F)c2n1CC(=O)N1CC(N2CCS(=O)(=O)CC2)C1 [Compound 1-48, 3-((6-Chloro-1-(2-(3-(1,1-dioxidothiomorpholino)azetidin-1-yl)-2-oxoethyl)-7-fluoro-2-methyl-1H-indol-3-yl)thio)benzoic acid]	≤ 500 nM
Cc1c(Sc2cccc(C(=O)O)c2)c2ccc(Cl)c(F)c2n1CC(=O)N1CC(O)(C2CC2)C1 [Compound 1-82, 3-((6-Chloro-1-(2-(3-cyclopropyl-3-hydroxyazetidin-1-yl)-2-oxoethyl)-7-fluoro-2-methyl-1H-indol-3-yl)thio)benzoic acid]	≤ 500 nM
Cc1c(Sc2cccc(C(=O)O)c2)c2ccc(Cl)c(F)c2n1CC(=O)Nc1cnn(C)c1 [Compound 1-6, 3-((6-Chloro-7-fluoro-2-methyl-1-(2-((1-methyl-1H-pyrazol-4-yl)amino)-2-oxoethyl)-1H-indol-3-yl)thio)benzoic acid]	≤ 500 nM
Cc1c(Sc2cccc(C(=O)O)c2F)c2ccc(Cl)c(F)c2n1CC(=O)N1CC(CN(C)C)C1 [Compound 2-71, 3-((6-Chloro-1-(2-(3-((dimethylamino)methyl)azetidin-1-yl)-2-oxoethyl)-7-fluoro-2-methyl-1H-indol-3-yl)thio)-2-fluorobenzoic acid]	≤ 500 nM
Cc1c(Sc2cccc(C(=O)O)c2)c2ccc(Cl)c(F)c2n1CC(=O)N1CCC(OCc2ccc(F)c(F)c2)CC1 [Compound 1-13, 3-((6-Chloro-1-(2-(4-((3,4-difluorobenzyl)oxy)piperidin-1-yl)-2-oxoethyl)-7-fluoro-2-methyl-1H-indol-3-yl)thio)benzoic acid]	≤ 500 nM
Cc1c(Sc2cccc(C(=O)O)c2)c2ccc(Cl)c(F)c2n1CC(=O)N1CCC(Cc2ccncc2)CC1 [Compound 1-63, 3-((6-Chloro-7-fluoro-2-methyl-1-(2-oxo-2-(4-(pyridin-4-ylmethyl)piperidin-1-yl)ethyl)-1H-indol-3-yl)thio)benzoic acid]	≤ 500 nM
